# Measured values: patent publication US20240043419A1, “CLASS OF 1,7-NAPHTHYRIDINE COMPOUNDS AND APPLICATION THEREOF” (Medshine Discovery Inc., priority 2020, published 2024)
# Tests used:
# tumor cell line LoVo = assay: in vitro LoVo cell proliferation inhibition assay (CellTiter-Glo cell viability); type: cell-based; conditions: Homo sapiens, LoVo cells
# Procedure: In this assay, the effect of the compounds on inhibiting cell proliferation was studied by detecting the effect of the compounds on the cell viability in vitro in the tumor cell line LoVo.
# Cell viability detection using CellTiter-Glo luminescence assay
# The following steps were performed according to the instructions of the Promega CellTiter-Glo Luminescent Cell Viability Detection Kit (Promega-G7573).
# (1). A CellTiter-Glo buffer was thawed and allowed to stand to reach room temperature.
# (2). A CellTiter-Glo substrate was allowed to stand to reach room temperature.
# (3). The CellTiter-Glo buffer was added to the CellTiter-Glo substrate in a bottle to dissolve the substrate to formulate a CellTiter-Glo working solution.
# (4). The working solution was vortexed slowly for fully dissolution.
# (5). A cell culture plate was taken out and allowed to stand for 30 minutes to equilibrate to room temperature.
# (6). 50 μL (equal to half the volume of cell culture solution in each well) of the CellTiter-Glo working solution was added into each well. The cell plate was wrapped with aluminum foil to protect the cell plate from light.
# (7). The culture plate was shaken on an orbital shaker for 2 minutes to induce cell lysis.
# (8). The culture plate was left at room temperature for 10 minutes to stabilize luminescent signals.
# (9). The luminescent signals were detected on a plate reader (SpectraMax i3x of MolecμLar Devices).
# The inhibition rate (IR) of the assay compounds was calculated by the following formula:
# IR (%)=(1−(RLU of compound−RLU of blank control)/(RLU of vehicle control−RLU of blank control))*100%.
# The inhibition rates of different concentrations of compounds were calculated in Excel, and then GraphPad Prism software was used to draw inhibition curves and calculate relevant parameters, including the minimum inhibition rate, maximum inhibition rate, and IC50.
# CHK1(p-Ser345) = assay: Assay of CHK1(p-Ser345) in vitro: inhibition of CHK1 phosphorylation in HT29 cells after 4NQO, alpha screen; type: cell-based; conditions: Homo sapiens, read-out: % Inhibition of CHKI phosphorylation; for inhibition at 0.0002 µM: HT-29, 0.2 nM compound; for inhibition at 0.025 µM: HT-29, 25 nM compound
# Procedure: The assay process was as follows: • 1) When cells HT29 grew to about 80% confluence, the cells were digested and plated on a 96-well plate (80,000 cells/well), and 90 ul of cell suspension was added to each well; the cell plate was placed in a 5% carbon dioxide, 37° C. incubator overnight; • 2) The next day, the supernatant was removed from the cell plate, and 90 ul of compounds with different concentrations were added; the plate was incubated at 37° C. for 1 hour, and then 10 ul of 7 uM 4NQO medium was added; the plate was incubated at 37° C. for 1 hour; • 3) After the incubation was completed, the supernatant was removed, and 50 ul/well cell lysate was added; the plate was shaken and incubated at room temperature for 50 minutes; • 4) After the incubation was completed, 8 ul/well cell lysate was transferred to a 384-well detection plate, and 5 ul of Acceptor was added; the plate was incubated at room temperature for 2 hours; • 5) Then 2 ul of Donor was added, and the plate was incubated at room temperature overnight; • 6) After the incubation was completed, alpha screen reading was performed.
# [1] = Pharmacokinetics in vivo in mice, single intravenous or single oral administration, plasma LC-MS/MS; conditions: mouse, female Balb/c Nude mice
# Procedure: The purpose of this assay is to study the pharmacokinetics of the compound of the present disclosure in the plasma of female Balb/c Nude mice after a single intravenous administration or a single oral administration.
# In the intravenous group, plasma samples were collected at 9 time points of 5 minutes, 15 minutes, 30 minutes, 1 hour, 2 hours, 4 hours, 6 hours, 8 hours and 24 hours after administration; in the oral group, plasma samples were collected at 8 time points of 15 minutes, 30 minutes, 1 hour, 2 hours, 4 hours, 6 hours, 8 hours and 24 hours after administration; the samples were analyzed by LC-MS/MS for the plasma concentration data of the compound of the present disclosure, and the pharmacokinetic parameters, such as peak concentration, time to peak, clearance rate, half-life, maximum plasma drug concentration, area under the drug-time curve were calculated.
# [2] = system: subcutaneous xenograft tumor of human colorectal cancer LoVo cells; assay: In vivo pharmacodynamics on subcutaneous xenograft tumor of human colorectal cancer LoVo cells in BALB/c nude mouse model; design: species or system BALB/c nude mice; conditions: oral 40 mg/kg, twice a day, 4 days on and 3 days rest per week, 21 days of administration
# Procedure: In this assay, the inhibitory effect of the compound of the present disclosure on the growth of subcutaneous xenograft tumor of human colorectal cancer LoVo cells was studied at an oral dosage of 40 mg/kg, twice a day, with 4 consecutive days of administration and 3 days of rest per week.
# Assay method: The selected assay animals (provided by Shanghai Sippe-Bk Lab Animal Co., Ltd.) were BALB/c nude mice, 6-8 weeks old, weighing 18-22 grams.
# Human colon cancer LoVo cells were cultured in a single layer in vitro with a culture condition of Ham's F-12 medium plus 10% fetal bovine serum, 100 U/mL penicillin, 100 μg/mL streptomycin and 2 mM glutamine, 37° C., 5% CO2. Cells were routinely digested and passaged with trypsin-EDTA twice a week. When the cell saturation was 80%-90%, the cells were collected, counted and inoculated. 0.1 mL (10×10^6 cells) of LoVo cells were subcutaneously inoculated on the right back of each nude mouse, and the mice were grouped and administered when the average tumor volume reached 146 mm^3. Tumor diameters were measured twice a week with vernier calipers. The calculation formula of tumor volume was: V=0.5 a×b^2, wherein a and b represent the long and short diameters of tumor, respectively.
# The antitumor efficacy of the compound was evaluated by TGI (%) or relative tumor proliferation rate T/C (%). TGI (%) reflected the inhibition rate of tumor growth. […]
Compound,IC50 (tumor cell line LoVo) [nM],inhibition at 0.0002 µM (CHK1(p-Ser345)) [%],inhibition at 0.025 µM (CHK1(p-Ser345)) [%],further results
C[C@@H]1COCCN1c1cc(-c2ccnn2C)c2c(F)cnc(-c3ccn[nH]3)c2n1 [Example 1],64,10.8,98,"clearance ([1]; Intravenous injection (1 mg/kg), read-out: Clearance rate): 13.7 mL/min/kg; half-life ([1]; Intravenous injection (1 mg/kg), read-out: Half-life T1/2 (converted)): 31.7 min; AUC(0-t) ([1]; Oral (10 mg/kg), read-out: Area under the drug-time curve AUC0-24 h): 41.2 µM·h; Cmax ([1]; Oral (10 mg/kg), read-out: Maximum plasma drug concentration Cmax): 23.6 µM; TGI (%) [2]: 92.4%"
Cc1cnn(C)c1-c1cc(N2CCOC[C@H]2C)nc2c(-c3ccn[nH]3)ncc(F)c12 [Example 2],78,,,
C[C@@H]1COCCN1c1cc(C2(C#N)CCOCC2)c2c(F)cnc(-c3ccn[nH]3)c2n1 [Example 3],61,4.52,93.2,
C[C@@H]1COCCN1c1cc(-c2cnnn2C)c2c(F)cnc(-c3ccn[nH]3)c2n1 [Example 4],141,,,
C[C@@H]1COCCN1c1cc(-c2ncnn2C)c2c(F)cnc(-c3ccn[nH]3)c2n1 [Example 6],395,,,
CC(C)Oc1cc(N2CCOC[C@H]2C)nc2c(-c3ccn[nH]3)ncc(F)c12 [Example 8],181,3.79,75.9,
C[C@@H]1COCCN1c1cc(C2CC2)c2c(F)cnc(-c3ccn[nH]3)c2n1 [Example 9],89,,,
C[C@@H]1COCCN1c1cc(C2=CCOCC2)c2c(F)cnc(-c3ccn[nH]3)c2n1 [Example 10],82,,,
C[C@@H]1COCCN1c1cc(C2CCOCC2)c2c(F)cnc(-c3ccn[nH]3)c2n1 [Example 11],59,,,
C[C@@H]1COCCN1c1cc(C2(O)CCOCC2)c2c(F)cnc(-c3ccn[nH]3)c2n1 [Example 12],129,,,
C[C@@H]1COCCN1c1cc(N2CCOCC2)c2c(F)cnc(-c3ccn[nH]3)c2n1 [Example 13],66,,,
Cc1nn(C)cc1-c1cc(N2CCOC[C@H]2C)nc2c(-c3ccn[nH]3)ncc(F)c12 [Example 14],103,,,
Cc1noc(C)c1-c1cc(N2CCOC[C@H]2C)nc2c(-c3ccn[nH]3)ncc(F)c12 [Example 15],182,,,
Cc1cc(-c2cc(N3CCOC[C@H]3C)nc3c(-c4ccn[nH]4)ncc(F)c23)n(C)n1 [Example 16],31,12.3,97.5,
Cc1n[nH]c(C)c1-c1cc(N2CCOC[C@H]2C)nc2c(-c3ccn[nH]3)ncc(F)c12 [Example 17],99,,,
Cc1nnn(C)c1-c1cc(N2CCOC[C@H]2C)nc2c(-c3ccn[nH]3)ncc(F)c12 [Example 18],146,,,
Cc1cnccc1-c1cc(N2CCOC[C@H]2C)nc2c(-c3ccn[nH]3)ncc(F)c12 [Example 20],41,6.34,95.5,
Cc1ncccc1-c1cc(N2CCOC[C@H]2C)nc2c(-c3ccn[nH]3)ncc(F)c12 [Example 21],77,,,
C[C@@H]1COCCN1c1cc(-c2ccncc2F)c2c(F)cnc(-c3ccn[nH]3)c2n1 [Example 22],80,,,
C[C@@H]1COCCN1c1cc(-c2ccc(S(C)(=O)=O)cc2)c2c(F)cnc(-c3ccn[nH]3)c2n1 [Example 23],84,,,
C[C@@H]1COCCN1c1cc(-c2ccnc3[nH]ccc23)c2c(F)cnc(-c3ccn[nH]3)c2n1 [Example 24],59,9.72,88,
C[C@@H]1COCCN1c1cc(N2CCC3(CNC3)C2)c2c(F)cnc(-c3ccn[nH]3)c2n1 [Example 27],374,8.45,78.3,
Cn1nccc1-c1cc(N2C3CCC2COC3)nc2c(-c3ccn[nH]3)ncc(F)c12 [Example 28],253,,,
Cn1nccc1-c1cc(N2CC3CCC(C2)O3)nc2c(-c3ccn[nH]3)ncc(F)c12 [Example 29],475,5.34,64.5,
